Experimental data reported in US11292788B2, “IL-17 and IFN-gamma inhibition for the treatment of autoimmune diseases and chronic inflammation” (Immunic AG, priority 2017, dated 2022).
pIC50: −log10 of the molar value. Where two headings read alike, the source gives them in different places.

Experiments:
Type in all cases: cell-based
INF-γ = assay: Cytokine assay: INF-γ production by human PBMC stimulated with PHA; conditions: IC50 class, read-out: IFN-gamma Inhib.
Method: (§1) Cytokine Assay: Analysis of Proliferation of and Cytokine Production by Human PBMC Stimulated with PHA
(§2) Peripheral blood mononuclear cells (PBMC) from healthy human donors were purified using Accuspin™ System-Histopaque-1077 (Sigma) according to the protocol recommended by the manufacturer. Purified PBMC were then washed twice with phosphate-buffered saline (PBS) and resuspended in RPMI1640 culture medium supplemented with 10% dialyzed heat inactivated fetal calf serum, 1.5 mM L-glutamine, 100 U penicillin/ml, and […] (all from PAN Biotech, Aidenbach, Germany). For stimulation, PBMC were seeded at 1×10^5 cells/well, activated with 2 μg/ml phytohaemagglutinin (PHA, Sigma) and incubated with the test compounds for 48 hours. IL-17A, IL-17F and INF-γ were then determined in the culture supernatant using a Luminex BioPlex system, following the manufacturer's instructions (BioRad, Munich, Germany). For screening, compounds were used at 10, 1, 0.1 and 0.01 μM. To determine the IC50, compounds were titrated semilogarithmically.
(§3) Cytokines were determined in the aforementioned culture supernatant using the following methods: IL-17A was measured using the human homodimer IL-17A ELISA Ready Set Go Kit from eBioscience (Frankfurt, Germany); IL-17F using the human IL-17F ELI-Pair from Hölzel DiagnosticaGmBH (Köln, Germany); and IFN-γ using the OptEIA human IFN-g ELISA from BD Bioscience (Heidelberg, Germany), all following the manufacturer's instructions.

IL-17F = assay: Cytokine assay: IL-17F production by human PBMC stimulated with PHA; conditions: IC50 class, read-out: IL-17F Inhib.
Method: as §1, §2, §3

IL-17A = assay: Cytokine assay: IL-17A production by human PBMC stimulated with PHA; conditions: IC50 class, read-out: IL-17A Inhib.
Method: as §1, §2, §3

Structure (SMILES) | pIC50 (INF-γ; Homo sapiens, PBMC) | pIC50 (IL-17F; Homo sapiens, PBMC) | pIC50 (IL-17A; Homo sapiens, PBMC) | pIC50 (IL-17A) | pIC50 (INF-γ) | pIC50 (IL-17F)
C=CCCC(O)(CC1CC1)c1c(-c2c(F)cccc2Cl)noc1-c1cnn(CC(C)(C)O)c1C(F)(F)F (racemic) [Example 38, 2-[3-(2-chloro-6-fluorophenyl)-5-[1-(2-hydroxy-2-methylpropyl)-5-(trifluoromethyl)-1H-pyrazol-4-yl]-1,2-oxazol-4-yl]-1-cyclopropylhex-5-en-2-ol] | ≤ 5.30 | ≤ 5.30 | 5.30 to 6.30 | – | – | –
CCOC(=O)c1c(-c2c(F)cccc2Cl)noc1-c1cnn([C@H]2C[C@@](C)(O)C2)c1C(F)(F)F [Example 11, ethyl 3-(2-chloro-6-fluorophenyl)-5-[1-(3-hydroxy-3-methylcyclobutyl)-5-(trifluoromethyl)-1H-pyrazol-4-yl]-1,2-oxazole-4-carboxylate] | – | – | – | > 7.30 | – | –
COC(=O)c1c(-c2ccccc2Cl)noc1-c1cnn([C@H]2C[C@](C)(O)C2)c1C [Example 17, methyl 3-(2-chlorophenyl)-5-(1-(3-hydroxy-3-methylcyclobutyl)-5-methyl-1H-pyrazol-4-yl)isoxazole-4-carboxylate] | – | – | – | 5.30 to 6.30 | 5.30 to 6.30 | 5.30 to 6.30
COC(=O)c1c(-c2cccnc2OC)noc1-c1cnn(C[C@@H](C)O)c1C(F)(F)F [Example 21, methyl (R)-5-(1-(2-hydroxypropyl)-5-(trifluoromethyl)-1H-pyrazol-4-yl)-3-(2-methoxypyridin-3-yl)isoxazole-4-carboxylate] | 5.30 to 6.30 | 5.30 to 6.30 | 5.30 to 6.30 | – | – | –
COC(=O)c1c(-c2ccccc2Cl)noc1-c1cnn(C[C@H](C)O)c1C(F)(F)F [Example 22, methyl (S)-3-(2-chlorophenyl)-5-(1-(2-hydroxypropyl)-5-(trifluoromethyl)-1H-pyrazol-4-yl)isoxazole-4-carboxylate] | > 7.30 | 6.30 to 7.30 | 6.30 to 7.30 | – | – | –
COC(=O)c1c(-c2ccccc2Cl)noc1-c1cnn(C[C@H](C)O)c1C [Example 24, methyl (S)-3-(2-chlorophenyl)-5-(1-(2-hydroxypropyl)-5-methyl-1H-pyrazol-4-yl)isoxazole-4-carboxylate] | 6.30 to 7.30 | 6.30 to 7.30 | 5.30 to 6.30 | – | – | –
COC(=O)c1c(-c2c(F)cccc2Cl)noc1-c1cnn(C2CC(O)C2)c1C(F)(F)F (stereo not drawn) [Example 28, methyl 3-(2-chloro-6-fluorophenyl)-5-(1-(3-hydroxycyclobutyl)-5-(trifluoromethyl)-1H-pyrazol-4-yl)isoxazole-4-carboxylate] | 5.30 to 6.30 | 5.30 to 6.30 | 5.30 to 6.30 | – | – | –
COC[C@]1(O)C[C@@H](n2ncc(-c3onc(-c4ccccc4Cl)c3C(=O)OC)c2C(F)(F)F)C1 [Example 29, methyl 3-(2-chlorophenyl)-5-(1-(3-hydroxy-3-(methoxymethyl)cyclobutyl)-5-(trifluoromethyl)-1H-pyrazol-4-yl)isoxazole-4-carboxylate] | 6.30 to 7.30 | 5.30 to 6.30 | 5.30 to 6.30 | – | – | –
Cc1nnc(-c2c(-c3c(F)cccc3Cl)noc2-c2cnn(CC(C)(C)O)c2C(F)(F)F)o1 [Example 30, 1-(4-(3-(2-chloro-6-fluorophenyl)-4-(5-methyl-1,3,4-oxadiazol-2-yl)isoxazol-5-yl)-5-(trifluoromethyl)-1H-pyrazol-1-yl)-2-methylpropan-2-ol] | 5.30 to 6.30 | 5.30 to 6.30 | 6.30 to 7.30 | – | – | –
CC(=O)c1c(-c2c(F)cccc2Cl)noc1-c1cnn(CC(C)(C)O)c1C(F)(F)F [Example 34, 1-(3-(2-chloro-6-fluorophenyl)-5-(1-(2-hydroxy-2-methylpropyl)-5-(trifluoromethyl)-1H-pyrazol-4-yl)-1,2-oxazol-4-yl)ethanone] | 5.30 to 6.30 | 5.30 to 6.30 | 5.30 to 6.30 | – | – | –
CC(C)(O)Cn1ncc(-c2onc(-c3c(F)cccc3Cl)c2C(=O)CC2CCC2)c1C(F)(F)F [Example 36, 1-[3-(2-chloro-6-fluorophenyl)-5-[1-(2-hydroxy-2-methylpropyl)-5-(trifluoromethyl)-1H-pyrazol-4-yl]-1,2-oxazol-4-yl]-2-cyclobutylethan-1-one] | 6.30 to 7.30 | 6.30 to 7.30 | 5.30 to 6.30 | – | – | –
C=CCCC(=O)c1c(-c2c(F)cccc2Cl)noc1-c1cnn(CC(C)(C)O)c1C(F)(F)F [Example 37, 1-[3-(2-chloro-6-fluorophenyl)-5-[1-(2-hydroxy-2-methylpropyl)-5-(trifluoromethyl)-1H-pyrazol-4-yl]-1,2-oxazol-4-yl]pent-4-en-1-one] | 6.30 to 7.30 | 6.30 to 7.30 | 6.30 to 7.30 | – | – | –
COCC(=O)c1c(-c2c(F)cccc2Cl)noc1-c1cnn(CC(C)(C)O)c1C(F)(F)F [Example 39, 1-[3-(2-chloro-6-fluorophenyl)-5-[1-(2-hydroxy-2-methylpropyl)-5-(trifluoromethyl)-1H-pyrazol-4-yl]-1,2-oxazol-4-yl]-2-methoxyethan-1-one] | 5.30 to 6.30 | ≤ 5.30 | 5.30 to 6.30 | – | – | –
COCC(=O)c1c(-c2c(F)cccc2Cl)noc1-c1cnn(C[C@@H](C)O)c1C(F)(F)F [Example 40, 1-[3-(2-chloro-6-fluorophenyl)-5-{1-[(2R)-2-hydroxypropyl]-5-(trifluoromethyl)-1H-pyrazol-4-yl}-1,2-oxazol-4-yl]-2-methoxyethan-1-one] | 5.30 to 6.30 | 5.30 to 6.30 | 5.30 to 6.30 | – | – | –
CC(C)(O)Cn1ncc(-c2onc(-c3c(F)cccc3Cl)c2C(=O)NC2CCCC2)c1C(F)(F)F [Example 41, 3-(2-chloro-6-fluorophenyl)-N-cyclopentyl-5-(1-(2-hydroxy-2-methylpropyl)-5-(trifluoromethyl)-1H-pyrazol-4-yl)isoxazole-4-carboxamide] | ≤ 5.30 | ≤ 5.30 | ≤ 5.30 | – | – | –
CC(C)(O)Cn1ncc(-c2onc(-c3c(F)cccc3Cl)c2C(=O)NC2CC2)c1C(F)(F)F [Example 42, 3-(2-chloro-6-fluorophenyl)-N-cyclopropyl-5-(1-(2-hydroxy-2-methylpropyl)-5-(trifluoromethyl)-1H-pyrazol-4-yl)isoxazole-4-carboxamide] | ≤ 5.30 | ≤ 5.30 | ≤ 5.30 | – | – | –
CC(C)(O)Cn1ncc(-c2onc(-c3c(F)cccc3Cl)c2C(=O)NC2CCC2)c1C(F)(F)F [Example 43, 3-(2-chloro-6-fluorophenyl)-N-cyclobutyl-5-(1-(2-hydroxy-2-methylpropyl)-5-(trifluoromethyl)-1H-pyrazol-4-yl)isoxazole-4-carboxamide] | 5.30 to 6.30 | 5.30 to 6.30 | 5.30 to 6.30 | – | – | –
C[C@@H](O)Cn1ncc(-c2onc(-c3c(F)cccc3Cl)c2C(=O)NC2CC2)c1C(F)(F)F [Example 45, 3-(2-chloro-6-fluorophenyl)-N-cyclopropyl-5-(1-((2R)-2-hydroxypropyl)-5-(trifluoromethyl)-1H-pyrazol-4-yl)isoxazole-4-carboxamide] | 5.30 to 6.30 | 5.30 to 6.30 | 5.30 to 6.30 | – | – | –
C[C@@H](O)Cn1ncc(-c2onc(-c3c(F)cccc3Cl)c2C(=O)NC2CCC2)c1C(F)(F)F [Example 46, 3-(2-chloro-6-fluorophenyl)-N-cyclobutyl-5-(1-((2R)-2-hydroxypropyl)-5-(trifluoromethyl)-1H-pyrazol-4-yl)isoxazole-4-carboxamide] | 6.30 to 7.30 | 6.30 to 7.30 | 5.30 to 6.30 | – | – | –
Cc1c(-c2onc(-c3ccccc3Cl)c2C(=O)OC2COC2)cnn1C[C@H](C)O [Example 47, oxetan-3-yl 3-(2-chlorophenyl)-5-{1-[(2S)-2-hydroxypropyl]-5-methyl-1H-pyrazol-4-yl}-1,2-oxazole-4-carboxylate] | 6.30 to 7.30 | 6.30 to 7.30 | 6.30 to 7.30 | – | – | –
C[C@]1(O)C[C@H](n2ncc(-c3onc(-c4ccccc4Cl)c3C(=O)OC3CC3)c2C(F)(F)F)C1 [Example 48, cyclopropyl 3-(2-chlorophenyl)-5-(1-(3-hydroxy-3-methylcyclobutyl)-5-(trifluoromethyl)-1H-pyrazol-4-yl)isoxazole-4-carboxylate] | – | – | – | 5.30 to 6.30 | 5.30 to 6.30 | 5.30 to 6.30
Cc1c(-c2onc(-c3c(F)cccc3Cl)c2C(=O)OC2CC2)cnn1[C@H]1C[C@@](C)(O)C1 [Example 62, cyclopropyl 3-(2-chloro-6-fluorophenyl)-5-{5-methyl-1-[3-hydroxy-3-methylcyclobutyl]-1H-pyrazol-4-yl}-1,2-oxazole-4-carboxylate] | – | – | – | > 7.30 | – | –
COCc1c(-c2c(F)cccc2Cl)noc1-c1cnn([C@H]2C[C@@](C)(O)C2)c1C [Example 70, 3-{4-[3-(2-chloro-6-fluorophenyl)-4-(methoxymethyl)-1,2-oxazol-5-yl]-5-methyl-1H-pyrazol-1-yl}-1-methylcyclobutan-1-ol] | 5.30 to 6.30 | 5.30 to 6.30 | – | – | – | –
COCc1c(-c2c(F)cccc2Cl)noc1-c1cnn([C@H]2C[C@](C)(O)C2)c1C [Example 71, 3-{4-[3-(2-chloro-6-fluorophenyl)-4-(methoxymethyl)-1,2-oxazol-5-yl]-5-methyl-1H-pyrazol-1-yl}-1-methylcyclobutan-1-ol] | 5.30 to 6.30 | 5.30 to 6.30 | – | – | – | –
